Assay results reported in patent US20050222041A1, “Ncam binding compounds” (ENKAM Pharmaceuticals A/S, priority 2001, published 2005).
Several values for one entry are separate records, joined by “and”; a condition that tells them apart may be missing. Equal entries are not always repeated. Where two headings read alike, the source gives them in different places. Ends that are not written are not given here.

Experiments:
[1] = test system: PC12E2 cells; assay: Fura-2 calcium imaging in PC12E2 cells; assay type: cell-based; details: lower concentrations than 50 μM
Method: The PC12-E2 cell line was a generous gift from Dr. Klaus Seedorf, Hagedorn Research Institute, Denmark. Cells were grown in DMEM supplemented with 5% v/v FBS and 10% v/v horse serum (HS). For calcium imaging, PC12E2 cells were dislodged mechanically by tapping and seeded at a density of 5-30,000 cells/cm^2 in 4 or 8 well LabTek chambered cover-slides (NUNC) with a growth surface of plastic coated with fibronectin (10 μg/ml) and grown for 1 to 5 days. In some cases, neuronal differentiation was induced by changing the medium to DMEM supplemented with 1% v/v FBS, 1% v/v HS and NGF (50 ng/ml) or FGF-2 (10 ng/ml).
Cells were washed in HANK's solution comprising KCl (5.4 mM), NaCl (137 mM), NaHCO3 (2 mM), MgSO4 (0.8 mM), Na2HPO4 (0.27 mM), Glucose (5.6 mM), CaCl2 (1.25 mM), KH2PO4 (0.44 mM) and loaded with fura-2 acetomethyl ester (Fura-2 AM, 2 μM, Molecular Probes, Eugene, Oreg., USA) dissolved in Dimethyl Sulfoxide (DMSO) for 35 min at 20° C. in the dark. Hereafter, cells were washed four times and placed on the stage of an inverted Axiovert 100 TV microscope (Zeiss, Göttingen, Germany) equipped with an oil immersion UV objective (Zeiss Fluar 40×, 1.3 numerical aperture). […] Rmax was determined in situ using Fura-2 AM loaded cells in the presence of ionomycin (5 μM) and high extracellular calcium (10 mM). Values determined were: Rmax 9.0; Rmin 0.68; F380max/F380min 7.0. […]

[2] = test system: NBP10-induced neurite outgrowth; assay: Inhibition of NBP10d-induced neurite outgrowth by inhibitors of NCAM-dependent signal transduction; assay type: cell-based, rat
[3] = test system: hippocampal cells; assay: Cell aggregation in primary hippocampal aggregate cultures; assay type: cell-based, rat; details: 24 h
Method: A variety of suitable compounds have been discussed above. To test the function of the NCAM binding molecule, the inventors have established a simple cell culture system (aggregate cell cultures) that permits a quantitative evaluation of the effect of various ligands. Hippocampal cells are provided from rat embryos. The cells are grown in a defined medium and dissociated cells are seeded in microtiter plates. After 24 h, the amount of aggregates are counted. Compounds to be tested are added to the cell suspension immediately before seeding of the cells in micro-wells. When NCAM binding compounds are present during the aggregation of cells, smaller, but more numerous cell aggregates are seen when quantified 24 h after seeding of the cells. The inhibiting effect of the ligands results in a blockage of the formation of large aggregates from many small aggregates as the adhesion properties of NCAM are blocked. Thus, small but more numerous cell aggregates are seen in the presence of active ligands. Such an effect is due to the presence of different compounds of the invention during the aggregation of cells. The system allows for the examination of disaggregation of the treated cells.
Dissociated hippocampal cells prepared from rat embryos gestational day 18 were seeded in microwell plates 50,000 cells in 15 μl of medium per well as previously described (Maar et al., 1997)(Rønn et al., 1999). All animals were handled in accordance with the national guidelines for animal welfare. Cells were grown in Neurobasal medium supplemented with B27, 20 mM HEPES, penicillin (100 U/ml), streptomycin (100 μg/ml) and 0.4% w/v bovine serum albumin. After 24 h in culture, the number of aggregates per well was determined. […] After 24 h, images of neurons were captured and analysed by means of computer-assisted microscopy as described (Rønn et al., 2000).
An important function of NCAM is mediation of cell adhesion. […] The effect of NBP10 on cell aggregation was only quantified at low concentrations of the peptide (FIG. 1CD). […] Under these conditions, the number of aggregates could not be quantified. […]

[4] = test system: primary hippocampal neurons; assay: Neurite outgrowth in dissociated cultures of primary hippocampal neurons on plastic; assay type: cell-based, rat; details: for concentration of maximal effect on neurite outgrowth: bell shaped dose-response
Method: Dissociated hippocampal cells prepared from rat embryos gestational day 18 were seeded in microwell plates 50,000 cells in 15 μl of medium per well as previously described (Maar et al., 1997)(Rønn et al., 1999). All animals were handled in accordance with the national guidelines for animal welfare. Cells were grown in Neurobasal medium supplemented with B27, 20 mM HEPES, penicillin (100 U/ml), streptomycin (100 μg/ml) and 0.4% w/v bovine serum albumin. After 24 h in culture, the number of aggregates per well was determined. For analysis of neurite outgrowth, 5,000 cells/well were seeded in 8 well LabTek Tissue Culture Chamber Slides with a growth surface of Permanox plastic. After 24 h, images of neurons were captured and analysed by means of computer-assisted microscopy as described (Rønn et al., 2000).
The effect of NBP10 in dissociated cultures of primary hippocampal neurons grown on a plastic substratum were examined.

[5] = molecular target: NCAM on primary hippocampal neurons from rat embryos (rat) (UniProt P13596); assay: cell-based or functional assay
[6] = NBP10d 1 μM, inhibitor concentration not given

AKKMWKKTW (listed as Rattus rattus) [NBP10]
effect on intracellular calcium [1]: only a fraction of the cells showed detectable increases in intracellular calcium

Cc1ccc(-c2nn(C(C)(C)C)c3ncnc(N)c23)cc1 [PP1]
effect on NBP10-induced neurite outgrowth [2, 6]: partially inhibited

COc1cccc(-c2cc(=O)c3ccccc3o2)c1N [PD98059]
effect on NBP10-induced neurite outgrowth ([2]; NBP10d 1 μM, inhibitor 10 μM): partially inhibited

AKKMWKKTW [NBP10m, monomeric NBP10 peptide]
concentration at which cultures had no distinct cell aggregates [3]: 200 µM
concentration inducing formation of small but distinct aggregates [3]: 60 µM
effect on cell aggregation [3]: inhibited cell aggregation
shape of dose-response relationship for neurite outgrowth [4]: bell shaped
concentration of maximal effect on neurite outgrowth [4]: ~100 µM
concentration of maximal effect on neurite outgrowth ([4]; listed as monomer): 1.00 µM
effect on neurite outgrowth ([4]; dose-response, 24 h, plastic substratum): stimulated neurite outgrowth

ω-conotoxin MVIIA
effect on NBP10-induced neurite outgrowth [2]: partial inhibition

C[S+]([O-])c1ccc(-c2nc(-c3ccncc3)c(-c3ccc(F)cc3)[nH]2)cc1 (stereo not shown) [SB203580]
effect on NBP10-induced neurite outgrowth ([2]; NBP10d 1 μM, inhibitor 1 μM): partially inhibited

CCN(CC)CCCCCCCCOC(=O)c1cc(OC)c(OC)c(OC)c1.Cl [TMB-8, 8-(N,N-diethylamino)octyl-3,4,5-trimethoxybenzoate hydrochloride]
effect on NBP10-induced neurite outgrowth [2, 6]: complete inhibition

AKKMWKKTW (peptide, part only, also: four monomers on lysine dendrimer backbone) [NBP10 peptide dendrimer (four NBP10 monomers coupled to a lysine backbone)]
cell aggregation of hippocampal cells, concentration with effect [5]: 1 µM and 2 µM
neurite outgrowth of dissociated hippocampal neurons, concentration of maximal effect [5]: 1 µM
cell aggregation, potency against the peptide monomer ([5]; scale: times lower concentration than the monomer): 50
